Counter-ions that a name gives are not always drawn. Like-named read-outs stand apart in the source and are kept apart here.
Columns and labels:
[1] = system: Human colon tumor cells (Colo205); assay: Cell growth inhibition assay (CellTiter-Glo), Colo205; type: cell-based
Description: Human colon tumor cells (Colo205) were cultured in RPMI (Mediatech 50-020-PB) containing 10% FBS and 1% penicillin-streptomycin.
The next day, compounds were diluted as follow: For 96-well assays, 13.5 μL of compound in DMSO were diluted using nine (9) serial 1:3 dilutions of 4.5 μL in 9 μL of DMSO. Medium (270 μL/well of RPMI with 10% FBS and 1% penicillin-streptomycin) was added to the plates. Aliquots (7 μL) were added to cells in the final assay giving a final DMSO concentration of 0.2%. For 384-well assays, 15 μL of compound in DMSO were diluted using nine (9) serial 1:3 dilutions of 5 μL in 10 μL of DMSO, followed by a further dilution of 5 μL of compound with 95 μL of medium, of which 2 μL were added to cells in the final assay giving a final DMSO concentration of 0.2%. Cells were incubated at 37° C., 5% CO2 for 3 days.
Total ATP was measured (as a surrogate estimate of cell number) using CellTiter-Glo® reagent (Promega G7571). Briefly, plates were removed from the incubator and allowed to equilibrate to room temperature for 30 minutes. CellTiter-Glo® (25 μL or 55 μL for 384-well or 96-well assays, respectively) reagent was added to each well and plates were shaken on an orbital plate shaker for 2 minutes. Plates were incubated without shaking for a further 30 minutes and read on an LJL Analyst GT reader in luminometer mode with an integration time of 0.5 seconds per well. Percent inhibition of cell growth was calculated relative to DMSO vehicle-treated control wells.

[2] = biological target: T1, BRAFV600E full-length (amino acids 2-766) (Homo sapiens, UniProt P15056, V600E); assay: B-Raf Accelerated MEK ATPase assay (BRAMA); type: biochemical; settings: categorized
T1 construct: His6-tagged BRAFV600E full-length (amino acids 2-766); His6; made in house; host or cells: baculovirus expression system (insect cells)
T1 sequence (P15056 2-766 V600E): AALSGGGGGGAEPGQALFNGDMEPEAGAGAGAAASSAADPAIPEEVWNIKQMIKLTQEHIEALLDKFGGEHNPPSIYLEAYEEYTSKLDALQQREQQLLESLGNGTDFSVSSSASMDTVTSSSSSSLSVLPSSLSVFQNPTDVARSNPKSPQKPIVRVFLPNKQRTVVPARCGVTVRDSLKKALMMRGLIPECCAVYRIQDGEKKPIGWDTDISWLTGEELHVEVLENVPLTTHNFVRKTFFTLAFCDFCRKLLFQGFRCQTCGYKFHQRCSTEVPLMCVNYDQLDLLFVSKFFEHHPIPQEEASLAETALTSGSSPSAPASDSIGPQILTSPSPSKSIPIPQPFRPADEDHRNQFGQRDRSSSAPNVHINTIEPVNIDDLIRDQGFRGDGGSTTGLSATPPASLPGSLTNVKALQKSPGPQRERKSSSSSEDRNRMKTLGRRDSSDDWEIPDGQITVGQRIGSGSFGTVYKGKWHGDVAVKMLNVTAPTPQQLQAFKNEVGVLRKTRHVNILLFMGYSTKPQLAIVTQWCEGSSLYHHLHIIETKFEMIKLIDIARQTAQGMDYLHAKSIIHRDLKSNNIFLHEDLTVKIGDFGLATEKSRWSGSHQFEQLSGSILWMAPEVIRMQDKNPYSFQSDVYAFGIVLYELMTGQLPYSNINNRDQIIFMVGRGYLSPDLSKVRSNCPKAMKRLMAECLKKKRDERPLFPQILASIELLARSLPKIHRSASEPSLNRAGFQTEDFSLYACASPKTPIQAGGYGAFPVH
Description: Compounds of the present invention were tested for B-Raf protein serine kinase inhibitory activity in a B-Raf Accelerated MEK ATPase assay (BRAMA). […] The BRAMA assay is a high sensitivity assay which measures an intrinsic MEK-mediated ATP hydrolysis uncoupled from downstream ERK phosphorylation by coupling the formation of ADP to NADH oxidation through the enzymes pyruvate kinase and lactate dehydrogenase. When ADP production is initiated by addition of catalytic amounts of an activated Raf enzyme and non-phosphorylated MEK, one observes robust ADP production concomitant with Raf-mediated phosphorylation of MEK. The method is disclosed in: C. Rominger, M. Schaber, E. May. Assay for B-Raf Activity Based on Intrinsic MEK ATPase Activity.

[3] = system: Human melanoma cancer cells (SK-MEL-28); assay: Cell growth inhibition assay (CellTiter-Glo), SK-MEL-28; type: cell-based
[4] = COLO 205, 72 h, Table 2a, 3 days incubation, read-out: Activity in Colo205 Tumor Cells
[5] = COLO 205, Table 2b, later runs, average for the one or more runs, categorized, read-out: IC50 for Colo205
[6] = B-Raf Activity, Table 1a, highest pIC50 for the one or more runs
[7] = B-Raf pIC50, Table 1b, later runs, average pIC50 for the one or more runs
[8] = SK-MEL-28, 72 h, Table 3a, 3 days incubation, read-out: Activity in SK-MEL-28 Tumor Cells
[9] = SK-MEL-28, Table 3b, later runs, average for the one or more runs, categorized, read-out: IC50 for SK-MEL-28
[10] = Table 1b, later runs, average pIC50 for the one or more runs, read-out: B-Raf pIC50 (converted)

Q: For `CC(C)c1nc(-c2ccc(F)c(NS(=O)(=O)c3cc(F)ccc3F)c2)c(-c2ccnc(NC3CCN(C)CC3)n2)s1` [Example 123], which IC50 [1, 4] is on record?
A: 100 to 1000 nM

Q: What about the IC50 [1, 5] of the same compound?
A: 100 to 1000 nM

Q: What about the IC50 [2, 6] of the same compound?
A: < 100 nM

Q: What about the IC50 [2, 7] of the same compound?
A: 31.6 to 1000 nM

Q: What about the IC50 [3, 8] of the same compound?
A: > 1000 nM

Q: And the IC50 [3, 9]?
A: 1000 to 10000 nM

Q: What does the source list for `CC(=O)NCCCNc1nccc(-c2sc(C(C)C)nc2-c2cccc(NS(=O)(=O)c3cc(F)ccc3F)c2F)n1` [Example 194]?
A: IC50 [1, 4]: < 100 nM; IC50 [2, 6]: < 100 nM; IC50 [2, 7]: ≤ 3.16 nM; IC50 [3, 8]: < 100 nM; IC50 [3, 9]: < 100 nM

Q: What does the source list for `CC(C)(C)c1nc(-c2cccc(NS(=O)(=O)c3cc(F)ccc3F)c2F)c(-c2ccnc(NCCNS(C)(=O)=O)n2)s1` [Example 199]?
A: IC50 [1, 4]: < 100 nM; IC50 [1, 5]: < 100 nM; IC50 [2, 6]: < 100 nM; IC50 [2, 7]: ≤ 3.16 nM; IC50 [3, 8]: < 100 nM; IC50 [3, 9]: < 100 nM

Q: Which results are given for `CC(C)c1nc(-c2ccc(F)c(NS(=O)(=O)c3c(F)cccc3F)c2)c(-c2ccnc(NCCOCCO)n2)s1` [Example 166]?
A: IC50 [1, 4]: 100 to 1000 nM; IC50 [1, 5]: 100 to 1000 nM; IC50 [2, 7]: 31.6 to 1000 nM; IC50 [3, 8]: 100 to 1000 nM; IC50 [3, 9]: 100 to 1000 nM

Q: With `COCCCNc1nccc(-c2sc(C(C)C)nc2-c2ccc(F)c(NS(=O)(=O)c3c(F)cccc3F)c2)n1` [Example 168] as the compound, how does the IC50 [1, 4] read?
A: 100 to 1000 nM

Q: And the IC50 [1, 5]?
A: 100 to 1000 nM

Q: And the IC50 [2, 7]?
A: 31.6 to 1000 nM

Q: What about the IC50 [3, 8] of the same compound?
A: 100 to 1000 nM

Q: And the IC50 [3, 9]?
A: 100 to 1000 nM

Q: What does the source list for `CS(=O)(=O)N1CCC(Nc2nccc(-c3sc(N4CCOCC4)nc3-c3cccc(NS(=O)(=O)c4ccco4)c3F)n2)CC1` [Example 41, N-{2-Fluoro-3-[5-(2-{[1-(methylsulfonyl)-4-piperidinyl]amino}-4-pyrimidinyl)-2-(4-morpholinyl)-1,3-thiazol-4-yl]phenyl}-2-furansulfonamide]?
A: IC50 [1, 4]: < 100 nM; IC50 [1, 5]: < 100 nM; IC50 [2, 6]: < 100 nM; IC50 [2, 7]: ≤ 3.16 nM; IC50 [3, 8]: < 100 nM; IC50 [3, 9]: 100 to 1000 nM

Q: Which results are given for `Nc1nccc(-c2oc(N3CCCC3)nc2-c2cccc(NS(=O)(=O)c3c(F)cccc3F)c2)n1` [Example 110, N-{3-[5-(2-Amino-4-pyrimidinyl)-2-(1-pyrrolidinyl)-1,3-oxazol-4-yl]phenyl}-2,6-difluorobenzenesulfonamide]?
A: IC50 [1, 5]: 1000 to 10000 nM; IC50 [2, 6]: 100 to 1000 nM; IC50 [2, 7]: 31.6 to 1000 nM; IC50 [3, 9]: 1000 to 10000 nM

Q: How did the IC50 [1, 5] turn out when `Cc1nccc(-c2sc(C(C)(C)C)nc2-c2c(F)ccc(NS(=O)(=O)c3cccc(F)c3)c2F)n1` [Example 220, N-{3-[2-(1,1-dimethylethyl)-5-(2-methyl-4-pyrimidinyl)-1,3-thiazol-4-yl]-2,4-difluorophenyl}-3-fluorobenzenesulfonamide] was run?
A: < 100 nM

Q: What about the IC50 [2, 10] of the same compound?
A: 3.16 to 31.6 nM

Q: And the IC50 [3, 9]?
A: < 100 nM

Q: `CC(C)(C)c1nc(-c2cccc(NS(=O)(=O)c3cccnc3)c2F)c(-c2ccnc(N)n2)s1` [Example 230, N-{3-[5-(2-amino-4-pyrimidinyl)-2-(1,1-dimethylethyl)-1,3-thiazol-4-yl]-2-fluorophenyl}-3-pyridinesulfonamide] was tested. Which IC50 [1, 5] did it give?
A: < 100 nM

Q: And the IC50 [2, 7]?
A: ≤ 3.16 nM

Q: What about the IC50 [3, 9] of the same compound?
A: < 100 nM

Q: Which results are given for `Cn1ccc(S(=O)(=O)Nc2cccc(-c3nc(C4CCOCC4)sc3-c3ccnc(N)n3)c2F)c1` [Example 285, N-{3-[5-(2-amino-4-pyrimidinyl)-2-(tetrahydro-2H-pyran-4-yl)-1,3-thiazol-4-yl]-2-fluorophenyl}-1-methyl-1H-pyrrole-3-sulfonamide hydrochloride]?
A: IC50 [1, 5]: 100 to 1000 nM; IC50 [2, 7]: 31.6 to 1000 nM; IC50 [3, 9]: 1000 to 10000 nM

Q: Which IC50 [1, 5] does the source give for `CC(C)(C)c1nc(-c2cccc(NS(=O)(=O)c3ccccc3)c2F)c(-c2ccnc(N)n2)s1` [Example 219, N-{3-[5-(2-amino-4-pyrimidinyl)-2-(1,1-dimethylethyl)-1,3-thiazol-4-yl]-2-fluorophenyl}benzenesulfonamide] here?
A: < 100 nM

Q: What about the IC50 [2, 10] of the same compound?
A: 3.16 to 31.6 nM

Q: And the IC50 [3, 9]?
A: < 100 nM

Q: `CC(C)(C)c1nc(-c2cccc(NS(=O)(=O)c3cc(F)ccc3F)c2F)c(-c2ccnc(NCCCN3CCCC3=O)n2)s1` [Example 96, N-{3-[2-(1,1-Dimethylethyl)-5-(2-{[3-(2-oxo-1-pyrrolidinyl)propyl]amino}-4-pyrimidinyl)-1,3-thiazol-4-yl]-2-fluorophenyl}-2,5-difluorobenzenesulfonamide] was tested. Which IC50 [1, 4] did it give?
A: < 100 nM

Q: And the IC50 [1, 5]?
A: < 100 nM

Q: What about the IC50 [2, 6] of the same compound?
A: < 100 nM

Q: And the IC50 [2, 7]?
A: ≤ 3.16 nM

Q: What about the IC50 [3, 8] of the same compound?
A: < 100 nM

Q: What about the IC50 [3, 9] of the same compound?
A: < 100 nM

Q: How did the IC50 [1, 5] turn out when `Cn1ccc(S(=O)(=O)Nc2cccc(-c3nc(C(C)(C)C)sc3-c3ccnc(N)n3)c2F)c1` [Example 284, N-{3-[5-(2-amino-4-pyrimidinyl)-2-(1,1-dimethylethyl)-1,3-thiazol-4-yl]-2-fluorophenyl}-1-methyl-1H-pyrrole-3-sulfonamide hydrochloride] was run?
A: 100 to 1000 nM

Q: And the IC50 [2, 7]?
A: 31.6 to 1000 nM

Q: What about the IC50 [3, 9] of the same compound?
A: 100 to 1000 nM

Q: `CN(C)c1nc(-c2cccc(NS(=O)(=O)c3c(F)cccc3F)c2)c(-c2ccnc(N)n2)s1` [Example 112, N-{3-[5-(2-Amino-4-pyrimidinyl)-2-(dimethylamino)-1,3-thiazol-4-yl]phenyl}-2,6-difluorobenzenesulfonamide] was tested. Which IC50 [1, 5] did it give?
A: 1000 to 10000 nM

Q: And the IC50 [2, 6]?
A: 100 to 1000 nM

Q: What about the IC50 [2, 7] of the same compound?
A: 31.6 to 1000 nM

Q: What does the source list for `Nc1nccc(-c2sc(C3CCOCC3)nc2-c2cccc(NS(=O)(=O)c3ccoc3)c2Cl)n1` [Example 265, N-{3-[5-(2-amino-4-pyrimidinyl)-2-(tetrahydro-2H-pyran-4-yl)-1,3-thiazol-4-yl]-2-chlorophenyl}-3-furansulfonamide]?
A: IC50 [2, 7]: ≤ 3.16 nM; IC50 [3, 9]: < 100 nM

Q: Which IC50 [2, 10] does the source give for `O=C(NCc1nccc(-c2sc(N3CCOCC3)nc2-c2cccc(NS(=O)(=O)c3cc(F)ccc3F)c2F)n1)C1CCCC1` [Example 274, N-({4-[4-(3-{[(2,5-difluorophenyl)sulfonyl]amino}-2-fluorophenyl)-2-(4-morpholinyl)-1,3-thiazol-5-yl]-2-pyrimidinyl}methyl)cyclopentanecarboxamide] here?
A: 3.16 to 31.6 nM

Q: `C[C@@H](O)CNc1nccc(-c2sc(C(C)(C)C)nc2-c2cccc(NS(=O)(=O)c3c(F)cccc3F)c2F)n1` [Example 290, N-{3-[2-(1,1-dimethylethyl)-5-(2-{[(2R)-2-hydroxypropyl]amino}-4-pyrimidinyl)-1,3-thiazol-4-yl]-2-fluorophenyl}-2,6-difluorobenzenesulfonamide] was tested. Which IC50 [2, 7] did it give?
A: ≤ 3.16 nM

Q: With `CC(C)c1nc(-c2ccc(F)c(NS(=O)(=O)c3c(F)cccc3F)c2)c(-c2ccnc(NCCN3CCOCC3)n2)s1` [Example 171] as the compound, how does the IC50 ([2]; Table 1a, highest pIC50 for the one or more runs, read-out: B-Raf Activity) read?
A: 100 to 1000 nM

Q: Which IC50 [2, 7] does the source give for `C[C@H](O)CNc1nccc(-c2sc(C(C)(C)C)nc2-c2cccc(NS(=O)(=O)c3c(F)cccc3F)c2F)n1` [Example 291, N-{3-[2-(1,1-dimethylethyl)-5-(2-{[(2S)-2-hydroxypropyl]amino}-4-pyrimidinyl)-1,3-thiazol-4-yl]-2-fluorophenyl}-2,6-difluorobenzenesulfonamide] here?
A: ≤ 3.16 nM

Q: What does the source list for `CC(C)c1nc(-c2cccc(NS(=O)(=O)c3c(F)cccc3F)c2F)c(-c2ccnc(NCCS(C)(=O)=O)n2)s1` [Example 11, 2,6-Difluoro-N-{2-fluoro-3-[2-(1-methylethyl)-5-(2-{[2-(methylsulfonyl)ethyl]amino}-4-pyrimidinyl)-1,3-thiazol-4-yl]phenyl}benzenesulfonamide]?
A: IC50 [2, 6]: < 100 nM; IC50 [2, 7]: ≤ 3.16 nM

Q: How did the IC50 [2, 7] turn out when `CC(C)(C)c1nc(-c2cccc(NS(=O)(=O)c3ccoc3)c2Cl)c(-c2ccncn2)s1` [Example 268, N-{2-chloro-3-[2-(1,1-dimethylethyl)-5-(4-pyrimidinyl)-1,3-thiazol-4-yl]phenyl}-3-furansulfonamide] was run?
A: ≤ 3.16 nM

Q: `CC(C)CNc1nccc(-c2sc(C3CCOCC3)nc2-c2cccc(NS(=O)(=O)c3ccoc3)c2F)n1` [Example 304, N-{2-fluoro-3-[5-{2-[(2-methylpropyl)amino]-4-pyrimidinyl}-2-(tetrahydro-2H-pyran-4-yl)-1,3-thiazol-4-yl]phenyl}-3-furansulfonamide] was tested. Which IC50 [2, 7] did it give?
A: ≤ 3.16 nM

Q: For `CC(C)(N)c1nc(-c2cccc(NS(=O)(=O)c3ccoc3)c2F)c(-c2ccnc(N)n2)s1` [Example 312, N-{3-[2-(1-amino-1-methylethyl)-5-(2-amino-4-pyrimidinyl)-1,3-thiazol-4-yl]-2-fluorophenyl}-3-furansulfonamide], which IC50 [2, 7] is on record?
A: ≤ 3.16 nM
